The record followed here is PubChem BioAssay (NCI).

Among the test systems are NCI-H460 lung; HT29 colon; HCT-15 colon; KM12 colon; 786-0 renal; TK-10 renal; COLO 205 colon; SK-MEL-5 melanoma; SK-OV-3 ovarian; PC-3 prostate.
Holding throughout (assay): NCI anticancer screen, dose series, 48 h

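Method: 48-hour compound exposure of cells in 96-well plates, five concentrations, linear interpolation of endpoints. Here, GI50 denotes the concentration required for 50% inhibition of growth. TGI: total growth inhibition.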

Regarding `N#CCCN(CCC#N)c1ccc(/C=C2\N=C(COc3ccc(Cl)cc3Cl)OC2=O)cc1`, the TGI with NCI-H460 lung, in the experiment with HT29 colon, in the experiment with HCT-15 colon, with KM12 colon, with 786-0 renal and in the experiment on TK-10 renal was greater than 100 µM throughout. Also, the TGI with COLO 205 colon, in the experiment with SK-MEL-5 melanoma and in the experiment with SK-OV-3 ovarian was greater than 100 µM each time.
For the compound `O=C(O)CNS(=O)(=O)c1ccc(NC(=O)c2ccc(F)cc2)cc1`, the TGI in the experiment with NCI-H460 lung, in the experiment with HT29 colon, with HCT-15 colon, with KM12 colon, with 786-0 renal and in the experiment on TK-10 renal was greater than 100 µM each time. Besides, the TGI with COLO 205 colon, in the experiment on SK-MEL-5 melanoma and in the experiment with SK-OV-3 ovarian was greater than 100 µM each time.
In the case of `O=C1c2ccccc2-c2nccc3cc(Cl)nc1c23`, the GI50 is 3 µM with NCI-H460 lung; 5.72 µM with 786-0 renal; 4.33 µM in the experiment with TK-10 renal; 2.96 µM in the experiment with PC-3 prostate; 1.34 µM with SK-MEL-5 melanoma; 35.9 µM in the experiment on SK-OV-3 ovarian. Besides, the TGI in the experiment on NCI-H460 lung is 12.2 µM; with 786-0 renal it was greater than 100 µM; in the experiment with TK-10 renal, greater than 100 µM; in the experiment with PC-3 prostate, greater than 100 µM; in the experiment with SK-MEL-5 melanoma it was 2.61 µM; with SK-OV-3 ovarian it was greater than 100 µM.
For the compound `Cn1ccnc1C(c1nccn1C)C(C)(C)[N+](=O)[O-]`, the TGI with NCI-H460 lung, with HCT-15 colon, in the experiment with KM12 colon, with 786-0 renal, in the experiment with TK-10 renal and with COLO 205 colon was greater than 100 µM in each case. Besides, the TGI in the experiment on SK-MEL-5 melanoma and with SK-OV-3 ovarian was greater than 100 µM each time.
For `ON(CCc1ccncc1)Cc1ccccc1`, the TGI in the experiment with HT29 colon, in the experiment with HCT-15 colon, in the experiment on KM12 colon, in the experiment on 786-0 renal, in the experiment with COLO 205 colon and in the experiment on SK-MEL-5 melanoma was greater than 100 µM each time. Moreover, the TGI in the experiment with SK-OV-3 ovarian was greater than 100 µM.
Regarding `Cc1cc(=O)c2cc(N=Cc3ccc([N+](=O)[O-])o3)ccc2o1`, the TGI in the experiment with NCI-H460 lung, in the experiment with HT29 colon, in the experiment on HCT-15 colon, in the experiment on KM12 colon, in the experiment on 786-0 renal and in the experiment with TK-10 renal was greater than 100 µM in each case. The TGI in the experiment on COLO 205 colon, with SK-MEL-5 melanoma and in the experiment on SK-OV-3 ovarian was greater than 100 µM each time.
Take `CCN(CC)CC(=O)/C=C/c1ccc(C)cc1`: the TGI was 46 µM in the experiment on NCI-H460 lung; 45.1 µM in the experiment on HT29 colon; 46 µM in the experiment with HCT-15 colon; 39 µM in the experiment on KM12 colon; 34.4 µM in the experiment on 786-0 renal; 74.8 µM in the experiment with TK-10 renal. Besides, the TGI is 34.5 µM in the experiment on COLO 205 colon, 33.1 µM in the experiment on SK-MEL-5 melanoma and 82.5 µM with SK-OV-3 ovarian.
With `COc1ccccc1/C=C1\CCC(CNc2ccc(Cl)cc2)C1=O` (stereo not given), the TGI was found to be 20.9 µM with NCI-H460 lung; 22.9 µM in the experiment on HT29 colon; 7.31 µM in the experiment on HCT-15 colon; 10 µM in the experiment on KM12 colon; 22.2 µM in the experiment on 786-0 renal; 18.6 µM in the experiment on TK-10 renal. Further, the TGI is greater than 32.7 µM with COLO 205 colon, 18.4 µM in the experiment on SK-MEL-5 melanoma and 16.8 µM in the experiment with SK-OV-3 ovarian.
`C=CCC12CCC(=O)C=C1CCC1(C2)OCCO1` (stereo not given): the TGI with NCI-H460 lung, with HCT-15 colon, in the experiment on KM12 colon, in the experiment on 786-0 renal, in the experiment with TK-10 renal and with COLO 205 colon was greater than 100 µM each time. Besides, the TGI with SK-MEL-5 melanoma and in the experiment with SK-OV-3 ovarian was greater than 100 µM each time.
Take `OCCN(CCO)c1cccc(N(CCO)CCO)c1`: the TGI with NCI-H460 lung, in the experiment on HCT-15 colon, in the experiment with KM12 colon, in the experiment with 786-0 renal, in the experiment with TK-10 renal and in the experiment on COLO 205 colon was greater than 100 µM throughout. The TGI in the experiment on SK-MEL-5 melanoma and in the experiment with SK-OV-3 ovarian was greater than 100 µM in each case.
On to `N=S(=O)(c1ccccc1)c1ccccc1[N+](=O)[O-]` (stereo not given), for which the TGI in the experiment on NCI-H460 lung, in the experiment with HT29 colon, in the experiment with HCT-15 colon, in the experiment on KM12 colon, in the experiment with 786-0 renal and with TK-10 renal was greater than 100 µM in each case. Besides, the TGI in the experiment on COLO 205 colon, in the experiment on SK-MEL-5 melanoma and in the experiment with SK-OV-3 ovarian was greater than 100 µM in each case.
As to `Oc1ccc2occ3c2c1CCC3`, the TGI with NCI-H460 lung, with HT29 colon, in the experiment on HCT-15 colon, in the experiment with 786-0 renal, with TK-10 renal and in the experiment with COLO 205 colon was greater than 100 µM in each case. For the same compound, the TGI in the experiment with SK-MEL-5 melanoma and in the experiment with SK-OV-3 ovarian was greater than 100 µM in each case.
`CN(C)c1ccc(/C=C/C(=O)C(C)(C)C)cc1Br`: the TGI with NCI-H460 lung is greater than 100 µM; in the experiment on HT29 colon it was greater than 100 µM; in the experiment with HCT-15 colon, 48.6 µM; in the experiment on KM12 colon it was 56.1 µM; in the experiment with 786-0 renal it was 59 µM; in the experiment on TK-10 renal it was 87.3 µM. Further, the TGI was 67.2 µM in the experiment on COLO 205 colon, 35.5 µM in the experiment with SK-MEL-5 melanoma and greater than 100 µM in the experiment with SK-OV-3 ovarian.
`NC(N)=N/N=C/c1c(-c2cccs2)nc2sccn12`: the GI50 in the experiment on NCI-H460 lung is 14.7 µM; in the experiment with HT29 colon, 13.2 µM; with HCT-15 colon, 15.4 µM; in the experiment with KM12 colon, 8.24 µM; in the experiment on 786-0 renal, 9.61 µM; in the experiment with PC-3 prostate it was 11.1 µM. The GI50 was 13.6 µM with SK-MEL-5 melanoma and 13 µM with SK-OV-3 ovarian. Further, the TGI in the experiment with NCI-H460 lung was 39.7 µM; in the experiment on HT29 colon, 27.1 µM; with HCT-15 colon, 28.8 µM; with KM12 colon it was 20.7 µM; in the experiment on 786-0 renal, 21.4 µM; with PC-3 prostate, 23.1 µM. The TGI was 26.5 µM in the experiment with SK-MEL-5 melanoma and 25.7 µM in the experiment with SK-OV-3 ovarian.
